Experimental data from patent US5120713A, “Treatment of obesity with an alpha-2-adrenergic agonist and a growth hormone releasing peptide” (Applied Research Systems ARS Holding N.V., priority 1990, dated 1992).
No end group written: not given here.

Legend:
plasma GH [1] = experiment: Plasma GH response (RIA) in prepubertal obese children after clonidine, galanin and/or GHRH; format: in vivo, human (obese children); settings: for Mean Peak GH Response: Obese patient group, Clo 150 micrograms/m^2 oral at time 0, GHRH 1 microgram/kg i.v. bolus at 60 min, Gal 50 pmol/kg/min infusion 55-120 min
Protocol: Eight prepubertal obese children (boys), aged 10 to 12.4 years, all in good general health and taking no medication, participated in the study with informed consent (parent and child). All had height within normal percentiles for chronological age. Bone age was advanced 6-24 months in all but one patient and weight was above the […] for chronological age in all cases. The children were tested six times at random intervals ranging from 7 to 10 days, each patient serving as their own control. Studies commenced at 0900 h after an overnight fast and bed rest and thirty minutes after the insertion of a nontrombogenic catheter for blood withdrawal in a forearm vein. The study consisted of administering clonidine (Catapresan, Boehringer Ingelheim, Spain) orally at 150 micrograms/m^2 at time 0 followed by administering GHRH (GRF 1-29, Serono, Spain) as an intravenous bolus at 1 microgram/kg at time 60 minutes. The control experiments consisted of administering on separate occasions either clonidine at time 0 or GHRH at time 60 minutes. Blood samples for GH assays (RIA, BioMerieux, France) were taken at 15 minute intervals for two hours. The mean intra-assay coefficient of variation was 5.9, 4.6 and 3.9% at mean GH concentrations of 1.5, 8 and 24 micrograms/L respectively. To avoid inter-assay variations, all samples from a subject were run in the same assay.
(§1) Galanin (Gal) was administered alone, with clonidine (Clo) and with GHRH by infusion as a saline solution at 50 pmol/kg/min through a Millex-GY (0.22 um, Millipore) filter at time 55 to 120 minutes in all experiments. Also, for comparison purposes a similar group of short stature children diagnosed as having constitutional growth delay (CGD) were administered GHRH, galanin plus GHRH, and clonidine plus GHRH (previous study) by the same procedure.

plasma GH [2] = experiment: Plasma GH response in short children with constitutional growth delay (CGD); format: in vivo, human (short stature children
Protocol: as §1

GH = settings: normal children and adolescents; reported (ref 9); cited from earlier work

Compound | Mean Peak GH Response (plasma GH [1]) [µg/L] | mean peak (maximal) plasma GH level (plasma GH [1]; obese children) [µg/L] | plasma GH response (in words) (plasma GH [1]; obese children) | maximal GH value in one patient (plasma GH [1]; obese children, single responding patient, at time 105 min) [µg/L] | time of GH peak after administering GHRH (plasma GH [1]; obese children) [min] | Mean Peak GH Response (plasma GH [2]; CGD patient group, same procedure) [µg/L] | mean GH peak (plasma GH [2]; control group of short children with constitutional growth delay) [µg/L] | GHRH-induced GH response (GH) [µg/L]
Clc1cccc(Cl)c1NC1=NCCN1 [Clo, 2-(2,6-dichloroanilino)-2-imidazoline] | 2.9 ± 0.8 | 2.9 ± 0.8 | did not produce any significant plasma GH increase | 6.5 | – | – | – | –
GHRH: growth hormone releasing hormone, GRF 1-29 (Serono, Spain) (YADAIFTNSYRKVLGQLSARKLLQDIMSR; ends and bridges not checked; UniProt P01286 32-60, looked up, fragment) | 9.6 ± 2 | 9.6 ± 2 | slight but significant increase in plasma GH | – | 45 | 17.1 ± 4.3 | 17.1 ± 4.3 | 25.8 ± 5.6
